# System: individuals with essential tremor
# Assay: Phase 2 placebo-controlled study, Compound 1 60 mg once daily for 28 days (reducible to 45 mg or 30 mg): TETRAS performance subscale part 4 upper limb tremor score and tremor amplitude
# Type: in vivo, human
# Conditions: for % CFB in Tremor Amplitude: calculated from TETRAS part 4 ratings
# Procedure: 4) Upper limb tremor: Tremor is assessed during three maneuvers: forward horizontal reach posture, lateral “wing beating” posture and finger-nose-finger testing. Each upper limb is assessed and scored individually. The forward horizontal reach posture is held for 5 seconds. The lateral wing beating posture is held for 20 seconds. The finger-nose-finger movement is executed three times. Amplitude assessment should be estimated using the maximally displaced point of the hand at the point of greatest displacement along any single plane. For example, the amplitude of a pure supination-pronation tremor, pivoting around the wrist would be assessed at either the thumb or fifth digit.
# For all three hand tremor ratings: 0=no tremor. 1=tremor is barely visible. 1.5=tremor is visible, but less than 1 cm. 2=tremor is 1-<3 cm amplitude. 2.5=tremor is 3-<5 cm amplitude. 3=tremor is 5-<10 cm amplitude. 3.5=tremor is 10-<20 cm amplitude. 4=tremor is >20 cm amplitude.
# As used herein, “The Essential Tremor Rating Assessment Scale (TETRAS) performance subscale part 4 upper limb tremor total score” refers to the “upper limb tremor” under metric or characteristic 4 of the TETRAS performance subscale set forth above. Each of the three tasks are performed on each limb to give a total of 6 tasks, wherein each task is scored 0, 1, 1.5, 2, 2.5, 3, 3.5, or 4, and each score is added to give a total score no greater than 24.
# [formula] • wherein Tf is a final tremor amplitude; • Ti is an initial tremor amplitude; • Rf is a final tremor rating; • Ri is an initial tremor rating; • α is 0.05; and • N=6, for 6 tasks in TETRAS performance subscale part 4 upper limb tremor total score.
# Participants were 18 to 80 years of age, inclusive, diagnosed of ET of at least 3 years duration with scores of at least 1.5 for each of the six items that comprised the combined total upper limb TETRAS (total performance subscale part 4) with the total score for the dominant upper limb (the sum of the 3 items for either the right or left upper limb, whichever is dominant) being at least 5.5, at both Screening and predose on Day 1.
# Groups received either Compound 1 as orally administered tablet(s) (each tablet providing 15 mg of Compound 1) or matching placebo at 1:1 ratio. Tablets were formulated as immediate release, white to off-white, round, film-coated tablets containing 15 mg of Compound 1, filler, disintegrant, lubricant, and glidant, wherein the tablets were formed using direct compression and coated with Opadry® II white as the film coating.
# Participants were randomized to receive Compound 1 60 mg or placebo once daily in the morning on a 1:1 basis. If participants reported a TEAE considered by investigator to be related to Compound 1 and not tolerable, investigator might reduce the dose of Compound 1 from 60 mg in 15 mg decrements (i.e., 60 mg, to 45 mg, to 30 mg), as medically appropriate. If intolerable TEAEs persist at the 30 mg dose, Compound 1 was permanently stopped.
# This study included a Screening Period of up to 28 days, a 29-day treatment period consisting of 28 days of dosing with the end of treatment visit intended to be on Day 29 at trough, and a 14-day follow-up period relative to final dose. Study patients were not taking other medications for essential tremor during the 28-day treatment period.
# The model included the change from baseline at each visit as the dependent variable, treatment, baseline TETRAS performance subscale part 4 upper limb tremor score, assessment timepoint, and timepoint-by-treatment as explanatory variables. All explanatory variables were treated as a fixed effect. The main comparison was (difference in least mean square [LSMEAN]) between Compound 1 and placebo at the 29-day timepoint.
# Model-based point estimates (i.e., LSMEAN, 95% confidence intervals, and p-values) were reported where applicable. An unstructured covariance structure was used to model the within-subject errors. […]
# [1] = Baseline TETRAS Upper Limb Part 4 < 12, Day 29
# [2] = Baseline TETRAS Upper Limb Part 4 ≥ 12, Day 29
# [3] = Baseline part 4 upper limb total score ≥ 12, Day 8
# [4] = Baseline part 4 upper limb total score ≥ 12, Day 15, 5 hr postdose
# [5] = Baseline part 4 upper limb total score ≥ 12, Day 15, 8 hr postdose
# [6] = Baseline part 4 upper limb total score ≥ 12, Day 15, predose
# [7] = Baseline part 4 upper limb total score ≥ 12, Day 22
# [8] = Baseline part 4 upper limb total score ≥ 12, Day 42
# [9] = Full Analysis Set, Day 15, 5 hr postdose
# [10] = Full Analysis Set, Day 15, 8 hr postdose
# [11] = Full Analysis Set, Day 15, predose
structure (smiles),measurement,setting,value
COC[C@@]1(O)CC[C@H]2[C@@H](CC[C@@H]3[C@@H]2CC[C@]2(C)[C@@H](C(=O)Cn4nnc(C)n4)CC[C@@H]32)C1 [Compound 1],LSMean (SE) CFB in TETRAS performance subscale part 4 upper limb tremor total score,[1],−1.06
same,LSMean Difference (CI) vs placebo in CFB in TETRAS performance subscale part 4 upper limb tremor total score,[1],0.45
same,Mean (SD) % CFB in TETRAS performance subscale part 4 upper limb tremor total score,[1],−7.76%
same,% CFB in Tremor Amplitude,[1],−18.40%
same,"Frequency of % CFB in tremor amplitude category 15-<30%, number of participants",[2],6
same,"Frequency of % CFB in tremor amplitude category 15-<30%, percent of participants",[2],(28.6)
same,"Frequency of % CFB in tremor amplitude category 30-<50%, number of participants",[2],2
same,"Frequency of % CFB in tremor amplitude category 30-<50%, percent of participants",[2],(9.5)
same,"Frequency of % CFB in tremor amplitude category 50-<75%, number of participants",[2],2
same,"Frequency of % CFB in tremor amplitude category 50-<75%, percent of participants",[2],(9.5)
same,"Frequency of % CFB in tremor amplitude category <15%, number of participants",[2],11
same,"Frequency of % CFB in tremor amplitude category <15%, percent of participants",[2],(52.4)
same,"Frequency of % CFB in tremor amplitude category >75%, number of participants",[2],0
same,Mean (SD) % CFB in TETRAS performance subscale part 4 upper limb tremor total score,[2],−20.47%
same,% CFB in Tremor Amplitude,[2],−41.00%
same,LSMean difference vs placebo in change from baseline in TETRAS performance subscale part 4 upper limb tremor total score,[3],−1.33
same,Model-based LSMean (SE) change from baseline in TETRAS performance subscale part 4 upper limb tremor total score,[3],−1.99 (0.340)
same,LSMean difference vs placebo in change from baseline in TETRAS performance subscale part 4 upper limb tremor total score,[4],−1.60
same,Model-based LSMean (SE) change from baseline in TETRAS performance subscale part 4 upper limb tremor total score,[4],−3.12 (0.449)
same,LSMean difference vs placebo in change from baseline in TETRAS performance subscale part 4 upper limb tremor total score,[5],−1.38
same,Model-based LSMean (SE) change from baseline in TETRAS performance subscale part 4 upper limb tremor total score,[5],−2.84 (0.445)
same,LSMean difference vs placebo in change from baseline in TETRAS performance subscale part 4 upper limb tremor total score,[6],−1.37
same,Model-based LSMean (SE) change from baseline in TETRAS performance subscale part 4 upper limb tremor total score,[6],−2.15 (0.371)
same,LSMean difference vs placebo in change from baseline in TETRAS performance subscale part 4 upper limb tremor total score,[7],−1.48
same,Model-based LSMean (SE) change from baseline in TETRAS performance subscale part 4 upper limb tremor total score,[7],−2.56 (0.383)
same,LSMean difference vs placebo in change from baseline in TETRAS performance subscale part 4 upper limb tremor total score,"Baseline part 4 upper limb total score ≥ 12, Day 29",−1.70
same,LSMean difference vs placebo in change from baseline in TETRAS performance subscale part 4 upper limb tremor total score,[8],0.22
same,Model-based LSMean (SE) change from baseline in TETRAS performance subscale part 4 upper limb tremor total score,[8],−1.59 (0.475)
same,Percent reduction from baseline in tremor amplitude,Full Analysis Set,36
same,LSMean difference vs placebo in change from baseline in TETRAS performance subscale part 4 upper limb tremor total score,"Full Analysis Set, Day 8",−0.81
same,Model-based LSMean (SE) change from baseline in TETRAS performance subscale part 4 upper limb tremor total score,"Full Analysis Set, Day 8",−1.67 (0.287)
same,LSMean difference vs placebo in change from baseline in TETRAS performance subscale part 4 upper limb tremor total score,[9],−0.40
same,Model-based LSMean (SE) change from baseline in TETRAS performance subscale part 4 upper limb tremor total score,[9],−2.64 (0.452)
same,LSMean difference vs placebo in change from baseline in TETRAS performance subscale part 4 upper limb tremor total score,[10],−0.27
same,Model-based LSMean (SE) change from baseline in TETRAS performance subscale part 4 upper limb tremor total score,[10],−2.36 (0.441)
same,LSMean difference vs placebo in change from baseline in TETRAS performance subscale part 4 upper limb tremor total score,[11],−0.48
same,Model-based LSMean (SE) change from baseline in TETRAS performance subscale part 4 upper limb tremor total score,[11],−1.78 (0.344)
